According to PubChem BioAssay AID1963832 (Molecular Pharmacology Branch, DTP, NCI, 2024):

Test system: 885724-159-R-J1-PDC complex spheroid viability
Experiment: Anticancer human tumor 885724-159-R-J1-PDC patient-derived pancreatic adenocarcinoma cell line growth inhibition [POLQ]
Details: for IC50: curve of first compound; for viability, T/C: stronger effect = lower value; active = viability on the fitted dose curve at most 10% of control; inactive = the rest
How it was run: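 Three-cell-type spheroids modelling solid tumor plus stroma served as the readout system; POL inhibitors were tested individually and in combination, concentration ranges set by clinical Cmax where known.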

[1] = second compound 0.0316 µM, first compound 0.00316 µM
[2] = second compound 0.0316 µM, first compound 0.01 µM
[3] = second compound 0.0316 µM, first compound 0.0316 µM
[4] = second compound 0.0316 µM, first compound 0.1 µM
[5] = second compound 0.0316 µM, first compound 0.316 µM
[6] = second compound 0.0316 µM, first compound 1 µM
[7] = second compound 0.1 µM, first compound 0.00316 µM
[8] = second compound 0.1 µM, first compound 0.01 µM
[9] = second compound 0.1 µM, first compound 0.0316 µM
[10] = second compound 0.1 µM, first compound 0.1 µM
[11] = second compound 0.1 µM, first compound 0.316 µM
[12] = second compound 0.1 µM, first compound 1 µM
[13] = second compound 0.316 µM, first compound 0.00316 µM
[14] = second compound 0.316 µM, first compound 0.01 µM
[15] = second compound 0.316 µM, first compound 0.0316 µM
[16] = second compound 0.316 µM, first compound 0.1 µM
[17] = second compound 0.316 µM, first compound 0.316 µM
[18] = second compound 0.316 µM, first compound 1 µM
[19] = second compound 1 µM, first compound 0.00316 µM
[20] = second compound 1 µM, first compound 0.01 µM
[21] = second compound 1 µM, first compound 0.0316 µM
[22] = second compound 1 µM, first compound 0.1 µM
[23] = second compound 1 µM, first compound 0.316 µM
[24] = second compound 1 µM, first compound 1 µM
[25] = second compound 3.16 µM, first compound 0.00316 µM
[26] = second compound 3.16 µM, first compound 0.01 µM
[27] = second compound 3.16 µM, first compound 0.0316 µM
[28] = second compound 3.16 µM, first compound 0.1 µM
[29] = second compound 3.16 µM, first compound 0.316 µM
[30] = second compound 3.16 µM, first compound 1 µM
[31] = second compound 10 µM, first compound 0.00316 µM
[32] = second compound 10 µM, first compound 0.01 µM
[33] = second compound 10 µM, first compound 0.0316 µM
[34] = second compound 10 µM, first compound 0.1 µM
[35] = second compound 10 µM, first compound 0.316 µM
[36] = second compound 10 µM, first compound 1 µM
[37] = second compound 0.0316 µM, first compound 3.16 µM
[38] = second compound 0.0316 µM, first compound 10 µM
[39] = second compound 0.1 µM, first compound 3.16 µM
[40] = second compound 0.1 µM, first compound 10 µM
[41] = second compound 0.316 µM, first compound 3.16 µM
[42] = second compound 0.316 µM, first compound 10 µM
[43] = second compound 1 µM, first compound 3.16 µM
[44] = second compound 1 µM, first compound 10 µM
[45] = second compound 3.16 µM, first compound 3.16 µM
[46] = second compound 3.16 µM, first compound 10 µM
[47] = second compound 10 µM, first compound 3.16 µM
[48] = second compound 10 µM, first compound 10 µM
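Also: spheroids exposed to compounds for 7 days.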

C=CCn1c(=O)c2cnc(Nc3ccc(N4CCN(C)CC4)cc3)nc2n1-c1cccc(C(C)(C)O)n1 + COC1C(OC(N)=O)C(O)C(Oc2ccc3c(O)c(NC(=O)c4ccc(O)c(CC=C(C)C)c4)c(=O)oc3c2C)OC1(C)C
inactive: viability, T/C [1] 87.8% | viability, T/C [2] 109% | viability, T/C [3] 90.9% | viability, T/C [4] 85.4% | viability, T/C [5] 47.5% | viability, T/C [6] 42.2% | viability, T/C [7] 100% | viability, T/C [8] 99.7% | viability, T/C [9] 96.5% | viability, T/C [10] 86.4% | viability, T/C [11] 54.4% | viability, T/C [12] 44.5% | viability, T/C [13] 103% | viability, T/C [14] 100% | viability, T/C [15] 93.2% | viability, T/C [16] 82.7% | viability, T/C [17] 52.7% | viability, T/C [18] 49% | viability, T/C [19] 110% | viability, T/C [20] 93.8% | viability, T/C [21] 89.7% | viability, T/C [22] 82.6% | viability, T/C [23] 55.1% | viability, T/C [24] 46.9% | viability, T/C [25] 100% | viability, T/C [26] 88.3% | viability, T/C [27] 90.1% | viability, T/C [28] 77.3% | viability, T/C [29] 57.4% | viability, T/C [30] 46.5% | viability, T/C [31] 101% | viability, T/C [32] 90.2% | viability, T/C [33] 97.2% | viability, T/C [34] 74.3% | viability, T/C [35] 58.6% | viability, T/C [36] 44.8%
296 nM: IC50 (second compound 0.0316 µM)
631 nM: IC50 (second compound 10 µM)
532 nM: IC50 (second compound 0.1 µM)
713 nM: IC50 (second compound 1 µM)
689 nM: IC50 (second compound 0.316 µM)
697 nM: IC50 (second compound 3.16 µM)

CC1COCCN1c1cc(C2(S(C)(=N)=O)CC2)nc(-c2ccnc3[nH]ccc23)n1 (stereo not drawn) + COC1C(OC(N)=O)C(O)C(Oc2ccc3c(O)c(NC(=O)c4ccc(O)c(CC=C(C)C)c4)c(=O)oc3c2C)OC1(C)C
4740 nM: IC50 (second compound 0.316 µM)
6580 nM: IC50 (second compound 0.0316 µM)
3830 nM: IC50 (second compound 1 µM)
7530 nM: IC50 (second compound 0.1 µM)
5460 nM: IC50 (second compound 3.16 µM)
5740 nM: IC50 (second compound 10 µM)
inactive: viability, T/C [3] 95.9% | viability, T/C [4] 96.8% | viability, T/C [5] 93% | viability, T/C [6] 67.8% | viability, T/C [37] 60.3% | viability, T/C [38] 44.6% | viability, T/C [9] 102% | viability, T/C [10] 89.7% | viability, T/C [11] 95.4% | viability, T/C [12] 73.6% | viability, T/C [39] 59.1% | viability, T/C [40] 47% | viability, T/C [15] 87.5% | viability, T/C [16] 98% | viability, T/C [17] 95.9% | viability, T/C [18] 68.7% | viability, T/C [41] 56.5% | viability, T/C [42] 43.9% | viability, T/C [21] 101% | viability, T/C [22] 102% | viability, T/C [23] 89% | viability, T/C [24] 72% | viability, T/C [43] 49.1% | viability, T/C [44] 45.5% | viability, T/C [27] 102% | viability, T/C [28] 85.6% | viability, T/C [29] 91.3% | viability, T/C [30] 72.6% | viability, T/C [45] 54.8% | viability, T/C [46] 43.9% | viability, T/C [33] 111% | viability, T/C [34] 92.2% | viability, T/C [35] 94.1% | viability, T/C [36] 72.7% | viability, T/C [47] 51.7% | viability, T/C [48] 47%

CCCS(=O)(=O)Nc1ccc(F)c(C(=O)c2c[nH]c3ncc(-c4ccc(Cl)cc4)cc23)c1F + COC1C(OC(N)=O)C(O)C(Oc2ccc3c(O)c(NC(=O)c4ccc(O)c(CC=C(C)C)c4)c(=O)oc3c2C)OC1(C)C
inactive: viability, T/C [3] 106% | viability, T/C [4] 114% | viability, T/C [5] 140% | viability, T/C [6] 148% | viability, T/C [37] 137% | viability, T/C [38] 65.9% | viability, T/C [9] 109% | viability, T/C [10] 114% | viability, T/C [11] 130% | viability, T/C [12] 157% | viability, T/C [39] 143% | viability, T/C [40] 67.8% | viability, T/C [15] 104% | viability, T/C [16] 121% | viability, T/C [17] 131% | viability, T/C [18] 163% | viability, T/C [41] 137% | viability, T/C [42] 76.6% | viability, T/C [21] 108% | viability, T/C [22] 107% | viability, T/C [23] 123% | viability, T/C [24] 145% | viability, T/C [43] 139% | viability, T/C [44] 68.1% | viability, T/C [27] 110% | viability, T/C [28] 103% | viability, T/C [29] 122% | viability, T/C [30] 154% | viability, T/C [45] 151% | viability, T/C [46] 82.4% | viability, T/C [33] 111% | viability, T/C [34] 114% | viability, T/C [35] 128% | viability, T/C [36] 139% | viability, T/C [47] 152% | viability, T/C [48] 76.3%
> 10000 nM: IC50 (second compound 0.0316 µM) | IC50 (second compound 0.1 µM) | IC50 (second compound 0.316 µM) | IC50 (second compound 1 µM) | IC50 (second compound 3.16 µM) | IC50 (second compound 10 µM)

COc1cccc(OCCCN)c1-c1cc(Nc2cnc(C#N)cn2)n[nH]1 + COC1C(OC(N)=O)C(O)C(Oc2ccc3c(O)c(NC(=O)c4ccc(O)c(CC=C(C)C)c4)c(=O)oc3c2C)OC1(C)C
17.6 nM: IC50 (second compound 3.16 µM)
6.72 nM: IC50 (second compound 10 µM)
7.34 nM: IC50 (second compound 0.316 µM)
7.41 nM: IC50 (second compound 0.1 µM)
inactive: viability, T/C [1] 58.8% | viability, T/C [2] 45.9% | viability, T/C [3] 40.8% | viability, T/C [4] 41.1% | viability, T/C [5] 44.4% | viability, T/C [6] 46.8% | viability, T/C [7] 62.2% | viability, T/C [8] 46.1% | viability, T/C [9] 41.2% | viability, T/C [10] 42.3% | viability, T/C [11] 45.4% | viability, T/C [12] 39% | viability, T/C [13] 62.6% | viability, T/C [14] 45.3% | viability, T/C [15] 43.5% | viability, T/C [16] 46.9% | viability, T/C [17] 42.5% | viability, T/C [18] 40.8% | viability, T/C [19] 63.2% | viability, T/C [20] 48.5% | viability, T/C [21] 41.8% | viability, T/C [22] 35.9% | viability, T/C [23] 45.4% | viability, T/C [24] 46.4% | viability, T/C [25] 58.7% | viability, T/C [26] 55% | viability, T/C [27] 44.6% | viability, T/C [28] 44.2% | viability, T/C [29] 43.2% | viability, T/C [30] 39.6% | viability, T/C [31] 59.4% | viability, T/C [32] 45.4% | viability, T/C [33] 41.5% | viability, T/C [34] 44.3% | viability, T/C [35] 43.5% | viability, T/C [36] 45.1%
8.1 nM: IC50 (second compound 1 µM)
5.21 nM: IC50 (second compound 0.0316 µM)
